{"source": "patent US20090270342A1", "about": "“IMMUNOREGULATORY AGENT” (priority 2006, published 2009)", "key": {"[1]": {"test_system": "anti-OVA-IgE, IgG1, IgG2a in serum", "assay": "Induction of anti-OVA antibodies by third OVA sensitization in already sensitive mice (Experiment 7)", "type": "in vivo", "settings": "for Anti-OVA-IgE in serum / Anti-OVA-IgG1 in serum / Anti-OVA-IgG2a in serum: two weeks after third sensitization of OVA-sensitive mice; for Anti-OVA-IgE in serum, relative to control / Anti-OVA-IgG1 in serum, relative to control / Anti-OVA-IgG2a in serum, relative to control: after third sensitization", "protocol": "In order to investigate the effect of lactosucorse on systemic immunity, antibody level in serum was measured. Similarly as in Experiment 1, female BALB/c mice (six weeks old) were preliminary reared for one week on “AIN-93G”, the same standard purified diet as used in Experiment 1. Successively, “NYU-KA OLIGO 700”, a saccharide composition comprising 71.4% (w/w), on a dry solid basis, of lactosucrose commercialized by Hayashibara Shoji Inc., Okayama, Japan, was incorporated into the above purified diet, in which corn starch equal to the amount of the saccharide composition comprising lactosucrose had been removed, to give a lactosucrose content of 2% (w/w) or 5% (w/w), and five to seven mice/group were allowed to ingest the resulting test diet freely. Mice, allowed to ingest “AIN-93G”, as the standard purified diet, were used as control. At 10 days after from starting the administration of the test diet, mice were sensitized to antigen by administrating 20 μg of ovalbumin (OVA) (grade V, commercialized by Sigma Corporation) as antigen and 4.5 mg of “IMJECT®”, alum commercialized by Pierce ThermoScientific as adjuvant, into the peritoneal cavity. Successively, 15 days after from the first sensitization, the second sensitization was carried out by the same procedure. The blood was collected from caudal vein of mice at one, two, and three weeks after from the second sensitization, the serum was collected by centrifugation, and the amount of IgE to OVA was measured by EIA. In the cases of IgG1 and IgG2a, the amount of antibody was measured using serum collected at two weeks after from the second sensitization. The IgE and IgG2a titers were measured by capture EIA and IgG1 titer was measured by indirect EIA. Each titer was calculated by calibration curve prepared by using anti-OVA mouse serum (IgE: 1.760 U/ml, IgG1: 128,000 U/ml, IgG2a: 7,040 u/ml) as a standard serum. The amounts of IgE at one, two, or three weeks after from the second sensitization are in Table 5, and the amounts of IgG1 and IgG2a of two weeks after from the second sensitization are in Table 6. The percentages in parentheses in tables mean a relative value to the antibody concentration in serum of the control mice.\nConsidering the application of lactosucrose to allergic patients, mice which had been made sensitive to OVA by sensitizing with OVA were prepared and the suppressing effect of lactosucrose on the production of anti-OVA-IgE when exposed to OVA was investigated by allowing the above mice to ingest lactosucrose. Female BALB/c mice (six weeks old, five mice/group) were preliminary reared for one week on “AIN-93G”, the same standard purified diet as used in Experiment 1. Successively, similarly as in Experiment 4, 20 μg of OVA, and 4.5 mg of alum were administrated to the peritoneal cavity of the mice and further reared for two weeks on the above standard diet. Then, the second sensitization of OVA and alum was carried out by the same procedure as used in the first sensitization. After two weeks, the mice were reared for further six weeks on the test diet comprising 2% (w/w) or 5% (w/w) lactosucrose, used in Experiment 1. After checking the mice being sensitive to OVA by measuring the amount of IgE, OVA and alum were administrated to them by the same procedure as used in the first and second sensitizations. After rearing two weeks on the test diet, blood was collected from respective mice and the concentrations of anti-OVA-IgE, anti-OVA-IgG1, and anti-OVA-IgG2a were determined by the same method as used in Experiment 4."}, "[2]": {"test_system": "spleen cells", "assay": "Cytokine production by spleen cells of OVA-sensitized mice restimulated with OVA (Experiment 6)", "type": "in vivo", "protocol": "In order to investigate the effect of lactosucrose on systemic immunity, the ability for producing cytokines of spleen cells was measured. At two weeks after the second sensitization in Experiment 4, spleens were removed from the mice of the control group and the group administrated with lactosucrose and the spleen cells were adjusted to give a cell concentration of 1×10^7/ml, and then placed in a 24-well plate. At two days or four days after adding 50 μg/ml of OVA, the amounts of IFN-γ, interleukin-2 (IL-2), IL-4, interleukin-5 (IL-5), and IL-10 in the culture supernatant were determined by conventional EIAs using antibodies (commercialized by BD-Pharmingen) corresponding to those. The percentages in parentheses in Table 9 mean relative values to the concentrations of respective cytokines produced by spleen cells from the control mice."}, "[3]": {"settings": "Lactosucrose 5% (w/w), listed as lactosucrose"}, "[4]": {"settings": "Lactosucrose 5% (w/w) diet, 2 days after adding 50 μg/ml OVA"}, "[5]": {"settings": "Lactosucrose 5% (w/w) diet, 4 days after adding 50 μg/ml OVA"}, "[6]": {"settings": "Lactosucrose 5% (w/w), 2 days after"}, "[7]": {"settings": "Lactosucrose 5% (w/w), 4 days after"}}}
{"smiles": "OC[C@H]1O[C@@H](O[C@H]2[C@H](O)[C@@H](O)[C@@H](O[C@]3(CO)O[C@H](CO)[C@@H](O)[C@@H]3O)O[C@@H]2CO)[C@H](O)[C@@H](O)[C@H]1O", "note": "[Lactosucrose, β-D-galactosyl-(1,4)-α-D-glucosyl-(1,2)-β-D-fructoside]", "values": [{"measurement": "Anti-OVA-IgE in serum", "setting": "[1]; Lactosucrose 2% (w/w) diet", "value": "1,450 ± 561 U/ml"}, {"measurement": "Anti-OVA-IgG1 in serum", "setting": "[1]; Lactosucrose 2% (w/w) diet", "value": "678 ± 176 ×10^4 U/ml"}, {"measurement": "Anti-OVA-IgG2a in serum", "setting": "[1]; Lactosucrose 2% (w/w) diet", "value": "12.4 ± 5.02 ×10^4 U/ml"}, {"measurement": "Anti-OVA-IgE in serum, relative to control", "setting": "[1]; Lactosucrose 2% (w/w)", "value": "(72%)"}, {"measurement": "Anti-OVA-IgG1 in serum, relative to control", "setting": "[1]; Lactosucrose 2% (w/w)", "value": "(111%)"}, {"measurement": "Anti-OVA-IgG2a in serum, relative to control", "setting": "[1]; Lactosucrose 2% (w/w)", "value": "(120%)"}, {"measurement": "Anti-OVA-IgE in serum, relative to control", "setting": "[1]; Lactosucrose 2% (w/w), listed as lactosucrose", "value": 72, "unit": "%"}, {"measurement": "Anti-OVA-IgE in serum", "setting": "[1]; Lactosucrose 5% (w/w) diet", "value": "1,250 ± 264 U/ml"}, {"measurement": "Anti-OVA-IgG1 in serum", "setting": "[1]; Lactosucrose 5% (w/w) diet", "value": "365 ± 35.1 ×10^4 U/ml"}, {"measurement": "Anti-OVA-IgG2a in serum", "setting": "[1]; Lactosucrose 5% (w/w) diet", "value": "5.77 ± 1.93 ×10^4 U/ml"}, {"measurement": "Anti-OVA-IgE in serum, relative to control", "setting": "[1]; Lactosucrose 5% (w/w)", "value": "(62%)"}, {"measurement": "Anti-OVA-IgG1 in serum, relative to control", "setting": "[1]; Lactosucrose 5% (w/w)", "value": "(60%)"}, {"measurement": "Anti-OVA-IgG2a in serum, relative to control", "setting": "[1]; Lactosucrose 5% (w/w)", "value": "(56%)"}, {"measurement": "Anti-OVA-IgE in serum, relative to control", "setting": "[1]; [3]", "value": 62, "unit": "%"}, {"measurement": "Anti-OVA-IgG1 in serum, relative to control", "setting": "[1]; [3]", "value": "about 50%"}, {"measurement": "Anti-OVA-IgG2a in serum, relative to control", "setting": "[1]; [3]", "value": "about 50%"}, {"measurement": "IFN-γ produced by spleen cells", "setting": "[2]; [4]", "value": "1.1 ± 0.19", "unit": "IU/ml"}, {"measurement": "IL-2 produced by spleen cells", "setting": "[2]; [4]", "value": "290 ± 160", "unit": "pg/mL"}, {"measurement": "IL-4 produced by spleen cells", "setting": "[2]; [4]", "value": "32 ± 10", "unit": "pg/mL"}, {"measurement": "IL-10 produced by spleen cells", "setting": "[2]; [4]", "value": "0.83 ± 0.27", "unit": "ng/mL"}, {"measurement": "IFN-γ produced by spleen cells", "setting": "[2]; [5]", "value": "2.9 ± 0.91", "unit": "IU/ml"}, {"measurement": "IL-4 produced by spleen cells", "setting": "[2]; [5]", "value": "62 ± 31", "unit": "pg/mL"}, {"measurement": "IL-5 produced by spleen cells", "setting": "[2]; [5]", "value": "1.3 ± 0.32", "unit": "ng/mL"}, {"measurement": "IL-10 produced by spleen cells", "setting": "[2]; [5]", "value": "2.7 ± 0.32", "unit": "ng/mL"}, {"measurement": "IFN-γ produced by spleen cells, relative value to control", "setting": "[2]; [6]", "value": "(113%)"}, {"measurement": "IL-2 produced by spleen cells, relative value to control", "setting": "[2]; [6]", "value": "(78%)"}, {"measurement": "IL-4 produced by spleen cells, relative value to control", "setting": "[2]; [6]", "value": "(107%)"}, {"measurement": "IL-10 produced by spleen cells, relative value to control", "setting": "[2]; [6]", "value": "(126%)"}, {"measurement": "IFN-γ produced by spleen cells, relative value to control", "setting": "[2]; [7]", "value": "(88%)"}, {"measurement": "IL-4 produced by spleen cells, relative value to control", "setting": "[2]; [7]", "value": "(63%)"}, {"measurement": "IL-5 produced by spleen cells, relative value to control", "setting": "[2]; [7]", "value": "(81%)"}, {"measurement": "IL-10 produced by spleen cells, relative value to control", "setting": "[2]; [7]", "value": "(123%)"}]}
